Entries after “also recorded” stand apart in the source; their conditions may differ.
What was measured:
[1] = molecular target: T1, hS1P4 (Homo sapiens, UniProt O95977); assay: Tango β-arrestin recruitment assay, Tango-hS1P4-CHO; assay type: cell-based; conditions: final concentration 45 µM, 9 serial dilutions at 5-fold intervals; 20 h drug treatment; luciferase readout
T1 construct: expressed in transfected cells; host or cells: CHO-K1
T1 sequence (O95977 1-384): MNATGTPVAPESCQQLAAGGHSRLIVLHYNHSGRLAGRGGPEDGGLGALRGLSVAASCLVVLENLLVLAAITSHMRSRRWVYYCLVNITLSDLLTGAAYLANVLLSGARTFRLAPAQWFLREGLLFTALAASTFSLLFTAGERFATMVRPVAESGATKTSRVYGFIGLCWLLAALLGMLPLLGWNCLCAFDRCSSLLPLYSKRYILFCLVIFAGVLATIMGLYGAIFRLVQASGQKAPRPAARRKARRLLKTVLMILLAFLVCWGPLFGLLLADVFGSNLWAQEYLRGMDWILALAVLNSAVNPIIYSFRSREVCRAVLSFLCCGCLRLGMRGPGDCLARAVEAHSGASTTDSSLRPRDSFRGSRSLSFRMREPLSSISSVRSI
From the text: (§1) The Tango assay detects ligand-dependent GPCR activity through the interaction between β-arrestin and GPCRs. […] The NTEV fragment and the tetracycline transactivator (tTA), an artificial transcription factor, are fused at the C-terminus of the GPCR, while the CTEV fragment is fused to human β-arrestin 2. To enhance the stability of the interaction between GPCR and β-arrestin, a short sequence from the C-terminus of the human arginine vasopressin receptor 2 (V2 tail) is inserted between the GPCR and NTEV. The V2 tail contains multiple GRK phosphorylation sites, which strengthen β-arrestin binding upon phosphorylation. The CTEV fragment carries the stabile point mutation S219P and is truncated at residue 221 to remove the autoinhibitory C-terminal tail. Meanwhile, β-arrestin 2 is truncated to lack the entire C-terminal tail (residues 383-410 deleted). This truncation confers robust stimulus-dependent receptor desensitization, thereby improving detection sensitivity compared with wild-type β-arrestin 2. The UAS reporter construct consists of upstream activating sequence (UAS) elements, a minimal CMV promoter, and a tTA-dependent luciferase reporter gene. Therefore, constructing Tango cells requires the co-transfection of the above three plasmids into host cells. Upon GPCR activation and β-arrestin recruitment, the TEV enzyme at the β-arrestin terminus cleaves tTA from the GPCR C-terminus. The released tTA initiates tTA-dependent luciferase transcription, and compound activity is ultimately determined by measuring luminescence intensity.
(§2) • 1) Tango cell line from was digested from the culture dish respectively. After cell counting, the cells were plated at a density of 10,000 cells per well with […] into a white opaque 96-well plate (add 60 µL D'Hanks to the surrounding wells), and incubated overnight (20 h) in a 5% CO2 incubator at 37°C. The cell density will reach approximately 90% the next day. • 2) After 20 h, 30 µL of serially diluted compound solution was added to each well. The control group was supplemented with 30 µL F12K complete medium. Each group had three replicate wells. • 3) Samples were collected after 20 h of drug treatment.
(§3) (All compounds were tested at a final concentration of 45 µM, with 9 serial dilutions at 5-fold intervals. 1 µM BAF-312 was used as the positive control for S1PR1, and 25 µM BAF-312 was used as the positive control for S1PR4.)
(§4) ^a β-arrestin recruitment activity based on Tango-S1PR1-CHO-K1 and Tango-S1PR4-CHO-K1 cells, expressed as mean EC50 values ± SD. ^b FLIPR assays were performed using S1PR2-CHO and S1PR5-CHO cell lines, expressed as mean EC50 values ± SD. ^c β-arrestin recruitment activity based on PathHunter CHO-K1-S1PR3 cells, expressed as mean EC50 values ± SD. Data are the mean of at least two independent determinations, reported as mean ± SD (standard deviation).

[2] = molecular target: T2, hS1P1 (Homo sapiens, UniProt P21453); assay: Tango β-arrestin recruitment assay, Tango-hS1P1-CHO; assay type: cell-based; conditions: final concentration 45 µM, 9 serial dilutions at 5-fold intervals; 20 h drug treatment; luciferase readout
T2 construct: expressed in transfected cells; host or cells: CHO-K1
From the text: as §1, §2, §3, §4

[3] = test system: S1PR4-R82C/NDUFA10-R217W double-mutant mice; assay: In vivo efficacy in S1PR4-R82C/NDUFA10-R217W double-mutant muscular dystrophy mice; conditions: 1 mg/kg intragastric once daily
Protocol: Experimental Animals: A total of 34 S1PR4-R82C/NDUFA10-R217W mice were divided into 6 groups as shown below.
Intragastric administration was initiated on Day 0, and body weight was measured daily during the experiment to adjust the drug dosage. Grip strength was measured at the beginning and end of the experiment to observe motor changes in mice. Changes in the limb grip strength, serum creatine kinase content, and muscle fibrosis/inflammation in mice were detected as indicators for evaluating drug efficacy.
(§5) The mouse was placed horizontally on the grip test board. The mouse's tail was held and pulled gently in the opposite direction without using excessive force. The tail was gradually pulled until the mouse released the grip force sensor. The maximum value recorded by the grip force sensor is the grip strength. The test was repeated for 3 times and the average value was taken.
(§6) After the completion of administration, blood was collected via the orbital sinus, allowed to stand for 30 minutes, centrifuged at 3000 rpm at 4°C for 15 minutes, and serum was extracted, stored frozen at -20°C, and detected in accordance with the kit instructions.
(§7) After the experiment, the tibialis anterior, extensor digitorum longus, and diaphragm of the mice were harvested, fixed, sectioned, and subjected to HE staining and Sirius Red staining to observe the degree of muscle fibrosis. The slice was subjected to immunofluorescence staining with F4/80 to observe the level of muscle inflammation.

[4] = test system: Duchenne muscular dystrophy model mice; assay: In vivo pharmacodynamic test in Duchenne muscular dystrophy model mice (Compound 30)
Protocol: Experimental Animals: A total of 35 Duchenne muscular dystrophy model mice were divided into 6 groups as shown below.
Intragastric administration was initiated from Day 0. Body weight was measured daily during the experiment to adjust the drug dosage. Grip strength tests were performed every 2 days to observe changes in the mice's grip strength until the experiment concluded on Day 21. Changes in the limb grip strength, serum creatine kinase content, and muscle fibrosis/inflammation in the mice were detected as indicators for evaluating drug efficacy.
as §5, §6, §7

[5] = 1 mg/kg intragastric once daily

T2 sequence (P21453 whole entry): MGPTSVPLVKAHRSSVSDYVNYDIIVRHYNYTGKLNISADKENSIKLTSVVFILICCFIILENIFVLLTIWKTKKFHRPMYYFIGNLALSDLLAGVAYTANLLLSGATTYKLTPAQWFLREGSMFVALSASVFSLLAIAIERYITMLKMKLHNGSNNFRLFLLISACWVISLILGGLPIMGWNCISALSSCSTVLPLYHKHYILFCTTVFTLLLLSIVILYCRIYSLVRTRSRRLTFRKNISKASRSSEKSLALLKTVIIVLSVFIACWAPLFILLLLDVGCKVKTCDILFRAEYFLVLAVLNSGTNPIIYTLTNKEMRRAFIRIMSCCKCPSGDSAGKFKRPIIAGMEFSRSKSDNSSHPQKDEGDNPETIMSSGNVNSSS

EC50 [1] [nM] | EC50 [2] [nM] | SMILES | also measured
18 ± 0.525 |  | CCc1cc(/C(C)=N/OCc2ccc(-c3cnc(F)nc3)c(C)c2)ccc1CN1CC[C@H](C(=O)O)C1 [Compound 80, (S, E)-1-(2-ethyl-4-(1-(((4-(2-fluoropyrimidin-5-yl)-3-methylbenzyl)oxy)imino)ethyl)benzyl)pyrrolidine-3-carboxylic acid] | 
 | 54.45 ± 0.2 | CCc1cc(/C(C)=N/OCc2ccc(-c3cnc(F)cn3)c(C)c2)ccc1CN1CC(C(=O)O)C1 [Compound 91, (E)-1-(2-ethyl-4-(1-(((3-methyl-4-(5-fluoropyrazin-2-yl)-benzyl)oxy)imino)ethyl)benzyl)azetidine-3-carboxylic acid] | 
75.4 ± 5.72 | 125 ± 14.5 | CCc1cc(/C(C)=N/OCc2ccc(-c3cnc(F)cn3)c(C)c2)ccc1CN1CC[C@@H](C(=O)O)C1 [Compound 95, (R, E)-1-(2-ethyl-4-(1-(((4-(5-fluoropyrazin-2-yl)-3-methylbenzyl)oxy)imino)ethyl)benzyl)pyrrolidine-3-carboxylic acid] | 
12 ± 1 | 348 ± 40.4 | CCc1cc(/C(C)=N/OCc2ccc(-c3cnc(F)cn3)c(C)c2F)ccc1CN1CC[C@H](C(=O)O)C1 [Compound 93, (S, E)-1-(2-ethyl-4-(1-(((2-fluoro-4-(5-fluoropyrazin-2-yl)-3-methylbenzyl)oxy)imino)ethyl)benzyl)pyrrolidine-3-carboxylic acid] | 
 | 23.2 ± 10.9 | CCc1cc(/C(C)=N/OCc2ccc(OC(C)C)c(C#N)c2)ccc1CN1CC(C(=O)O)C1 [Compound 16, (E)-1-(4-(1-(((3-cyano-4-isopropoxybenzyl)oxy)imino)ethyl)-2-ethylbenzyl)azetidine-3-carboxylic acid] | 
573 ± 106 | 5.63 ± 0.15 | C/C(=N\OCc1ccc(C2CCCCC2)c(C(F)(F)F)c1)c1ccc(CN2CC(C(=O)O)C2)c(F)c1 [Compound 11] | 
560 ± 185 |  | CCc1cc(/C(C)=N/OCc2ccc3ccccc3c2)ccc1CN1CC(C(=O)O)C1 [Compound 15] | 
 | 5950 ± 72.8 | CCc1cc(/C(C)=N/OCc2ccc(-c3cnc(F)cn3)c(C)c2)ccc1CN1CCC(C(=O)O)CC1 [Compound 90, (E)-1-(2-ethyl-4-(1-(((3-methyl-4-(5-fluoropyrazin-2-yl)-benzyl)oxy)imino)ethyl)benzyl)piperidine-4-carboxylic acid] | 
13.9 ± 1.48 | 614 ± 50.2 | CCc1cc(/C(C)=N/OCc2cc(C)c(-c3cnc(F)cn3)cc2F)ccc1CN1CC[C@H](C(=O)O)C1 [Compound 94, (S, E)-1-(2-ethyl-4-(1-(((2-fluoro-4-(5-fluoropyrazin-2-yl)-5-methylbenzyl)oxy)imino)ethyl)benzyl)pyrrolidine-3-carboxylic acid] | 
 |  | C[C@]12C=CC(=O)C=C1CC[C@@H]1[C@@H]2[C@@H](O)C[C@@]2(C)[C@H]1CC[C@]2(O)C(=O)CO [prednisolone, reference compound] | grip strength (ratio of grip strength to body weight) ([3]; after 21 days of treatment): significantly increased; collagen deposition (collagen area ratio) ([3]; after administration): significantly reduced collagen deposition; serum creatine kinase level ([3]; after treatment): no such lowering effect; also recorded: no reduction; body weight gain trend ([3]; compared with the model group): relatively slow; collagen deposition (collagen area ratio) [4, 5]: significantly reduced collagen deposition; number of centrally nucleated fibers (HE staining) [4, 5]: significantly reduced; serum creatine kinase level ([4]; 1 mg/kg intragastric once daily, after treatment): significantly reduced; body weight growth trend ([4]; 1 mg/kg intragastric once daily, compared with the model group): no difference; macrophage content (F4/80 immunofluorescence, muscle inflammation) ([4]; intragastric once daily): significantly reduced macrophage content
34.17 ± 0.22 |  | CCc1cc(/C(C)=N/OCc2ccc(-c3ccns3)cc2)ccc1CN1CC[C@H](C(=O)O)C1 [Compound 75] | 
135 ± 17.8 | 5250 ± 235 | CCc1cc(/C(C)=N/OCc2ccc(-c3cnc(F)cn3)cc2)ccc1CN1CC[C@H](C(=O)O)C1 [Compound 89] | 
27.4 ± 1.12 | 3210 ± 112 | CCc1cc(/C(C)=N/OCc2ccc(-c3cnc(F)cn3)c(F)c2)ccc1CN1CC[C@H](C(=O)O)C1 [Compound 88, (S, E)-1-(2-ethyl-4-(1-(((3-fluoro-4-(5-fluoropyrazin-2-yl)benzyl)oxy)imino)ethyl)benzyl)pyrrolidine-3-carboxylic acid] | 
10.6 ± 1.19 |  | CCc1cc(/C(C)=N/OCc2ccc(-c3cnc(F)cn3)c(C)c2)ccc1CN1CCC(C(=O)O)C1 (stereo not drawn) [Compound 4, (E)-1-(2-ethyl-4-(1-(((4-(5-fluoropyrazin-2-yl)-3-methylbenzyl)oxy)imino)ethyl)benzyl)pyrrolidine-3-carboxylic acid] | 
 | 5100 ± 1510 | CCc1cc(/C(C)=N/OCc2cccc(C(F)(F)F)c2)ccc1CN1CC(C(=O)O)C1 [Compound 13] | 
36.2 ± 6.58 |  | CCc1cc(/C(C)=N/OCc2ccc(-c3cncnc3)cc2)ccc1CN1CC[C@H](C(=O)O)C1 [Compound 70, (S, E)-1-(2-ethyl-4-(1-(((4-(pyrimidin-5-yl)benzyl)oxy)imino)ethyl)benzyl)pyrrolidine-3-carboxylic acid] | 
40.95 ± 0.22 |  | CCc1cc(/C(C)=N/OCc2ccc(-c3cncnc3C)c(C)c2)ccc1CN1CC[C@H](C(=O)O)C1 [Compound 83, (S, E)-1-(2-ethyl-4-(1-(((3-methyl-4-(4-methylpyrimidin-5-yl)benzyl)oxy)imino)ethyl)benzyl)pyrrolidine-3-carboxylic acid] | 
13.13 ± 0.02 |  | CCc1cc(/C(C)=N/OCc2ccc(-c3cnsc3)cc2)ccc1CN1CC[C@H](C(=O)O)C1 [Compound 74] | 
10.7 ± 0.11 |  | CCc1cc(/C(C)=N/OCc2ccc(-c3cccs3)cc2)ccc1CN1CC[C@H](C(=O)O)C1 [Compound 73] | 
